Results: patent US5441983A, “Treatment of infection by enveloped virus with calix(N)arene compounds” (Genelabs Incorporated, priority 1992, dated 1995)

Legend:
[1] = tested on: Influenza A (Taiwan); assay: Inhibition of influenza A cytopathic effect (clumping) in MDCK cells; format: cell-based, Influenza A virus (A/Taiwan strain); details: Influenza A virus, 24 h, 50% reduction in percent clumped cells, read-out: ED50 Influenza A (Taiwan)
Procedure: With virus infection, a cytopathic effect characterized by cell clumping is observed. For each compound tested, drug concentrations of 0.1, 1, 10, 25, and 100 μg/ml were added to cultured cells at the time of virus infection, as detailed in Examples 9 and 11. […] The inhibition of clumping was plotted as a function of drug concentration, to determine the dose effective to produce a 50% reduction in the percent clumped cells, measured with respect to control (no drug treatment).
Assays to assess the antiviral activity of KY- and Y-compounds in tissue culture were performed in 96-well flat-bottom tissue culture plates (Falcon 307), using conditions similar to those used in the cytotoxicity assays described above. In these assays, compound was tested in quadruplicate by serially diluting the compound in 2% FCS-MEM using serial two-fold dilutions (0.05 ml/well). A 0.05 ml volume of the appropriate virus containing approximately 100 median tissue culture infectious doses (TCID50) was then added to all wells except those set aside as antiviral and tissue control wells. Next, approximately 3×10^3 HEp2 cells (0.1 ml) were added to each well. Control wells containing antiviral and no virus (antiviral control), containing virus but no antiviral (virus control), or containing medium without virus or antiviral (tissue control), were included in each test. The challenge virus was then back titrated. All assay plates were incubated at 35° C. for 5 to 7 days in a 5% CO2 incubator.
The anti-influenza A activity of KY compounds was evaluated as described in Example 9, except that MDCK cells (kidney cell line) was used for infection in vitro by influenza virus (strain A/Taiwan).

[2] = tested on: HSV-1 binding to Vero cells; assay: Inhibition of binding of radiolabeled HSV-1 to Vero cells; format: cell-based; details: 10 μg/ml KY-1, FIG. 30
Procedure: In one study, the ability of a macrocyclic compound to block HSV binding to infectable cells was examined as described in Example 14. Briefly, Vero cells were exposed to radiolabeled HSV-1 or HSV-2 in the absence of KY compound or in the presence of 10 μg/ml KY-1, and binding of the virus at times up to 4 hours after exposure to the virus was measured. […] In the absence of drug, the amount of bound virus increased steadily over two hours, and slightly from 2-4 hours. By contrast, virus binding to cells peaked at about 1/2 hour in the presence of drug, presumably reflecting the time during which the binding events effective to block virus binding to the cells are equilibrating.
At time intervals of 5, 30, 60, 120, and 240 minutes, cells were removed from the suspension, washed two times with PBS, and assayed for bound virus (cpm ^3 H). The results are given in FIG. 30, where the control virus binding is indicated by solid circles, and the drug-inhibited binding, by open rectangles.

[3] = tested on: HSV-1 and HSV-2; assay: Viral yield inhibition, HeLa cells, plaque count on Vero cells; details: up to 10 μg/ml, FIGS. 29A and 29B, depending on drug and virus
Procedure: The ability of selected naphthalene-subunit compounds to inhibit HSV-1 and HSV-2 viral yields at selected drug concentrations up to 10 μg/ml was assessed in the viral inhibition assay described in Example 7. Briefly, cultured Hela cells were exposed to serially diluted KY compound and virus, allowed to grow for 24 hours, then freeze/thawed 3 times to release virus particles. Vero cells were infected serial dilutions of the viral lysates were assayed for plaque counts as described in Example 6.
1×10^6 HeLa S3 were plated in 25 T flasks in 5 ml RPMI-1640+5% FCS+P/S. 24 hours later, the medium was aspirated and replaced with 6×10^6 PFU HSV-1 or HSV-2, and serial dilutions of selected KY compounds, at 10, 5, 2.5, 1.25, and 0.625 μg/ml drug. After growth at 37° C. for 24 hours in 2 ml of RPMI-1640 containing 2% FCS and P/S, the cells were frozen at -70° C. until the time for titration. The cells were freeze/thawed 3 times to release virus from the cells, and serially diluted 10 fold.
1×10^5 Vero cells were plated in each well of 24 well multi-dish in 1 ml RPMI-1640+5% FCS+P/S+0.1% methylcellulose (15 cps). On the second day, after removal of the medium, the 10 fold serially diluted virus in 100 μl was added in duplicate. […] The plaques formed were counted and the titer was calculated from the fold of dilutions.

O=S(=O)(O)c1cc2cc(S(=O)(=O)O)c3c(O)c2c(O)c1Cc1c(S(=O)(=O)O)cc2cc(S(=O)(=O)O)c(c(O)c2c1O)Cc1c(S(=O)(=O)O)cc2cc(S(=O)(=O)O)c(c(O)c2c1O)Cc1c(S(=O)(=O)O)cc2cc(S(=O)(=O)O)c(c(O)c2c1O)C3 [KY-1]
EC50 [1]: > 188 µg/mL
time at which virus binding to cells peaked [2]: about 1/2
dose dependent drop in viral yield [3]: 3-5 orders of magnitude
